Results published in patent US10329334B2 (SANOFI, priority 2015, dated 2019).
One block for each compound: values may come before it. Starred links: 1 amine or outer side, 2 acyl side, 3 side chain; linkers in the order of their positions; H or OH if unused. Positions of bridges follow the written chain, without caps; N, C: chain ends. Non-standard residues stand in square brackets, D forms with d. Residues, ends and D or L forms follow the SMILES beside them. *: point of attachment. X1 = O=C([C@@H]1CCNc2c(N[*:1])cc3cc(O)c(O)cc3[n+]21)[*:2]; X4 = O=C([C@@H]1CCN=C2C(N[*:1])=Cc3cc(O)c(O)cc3N21)[*:2]; dOrn(N5-OH,N5-CHO) = N[C@H](CCCN(O)C=O)C(=O)O; Butanoyl(2-oxo,4-COOH) = O=C(O)CCC(=O)C(=O)*; X5 = O=CN(O)CCC[C@H](N[*:1])C(=O)[*:2]; d(aThr) = C[C@@H](O)[C@@H](N)C(=O)O; Suc = O=C(CCC(=O)[*:2])[*:1]; X2 = O=C1[C@@H](N*)CCCN1[O-]; Orn = NCCC[C@H](N)C(=O)O

Experiments:
Type in all cases: binding
[1] = molecular target: T1, human lipocalin 2 (hNGAL) mutein SEQ ID NO: 35 (Homo sapiens, UniProt P80188, A60T/C107S/D97H/K145I/K154W/K93R/L123T/L56V/L90R/N85Q/Q48H/Q69G/R101D/R92I/S147R/S88D/T74A/W99Y/Y126Q/Y152I/Y72N); experiment: SPR (Biacore T200), mutein SEQ ID NO: 35; conditions: for specificity and crossreactivity (binding): 2 μM for all analytes
T1 construct: made in house; host or cells: E. coli
Method: (§4) In a Surface Plasmon Resonance (SPR) based assay a Biacore T200 instrument (GE Healthcare) was used to measure the binding affinity of muteins to pyoverdine I succinyl, -succinamid, -α-ketoglutaryl with complexed iron ion or to pyoverdine II succinyl, -succinamid, -α-ketoglutaryl with complexed iron ion or to pyoverdine III succinyl, -succinamid, -α-ketoglutaryl with complexed iron ion. Muteins selected for binding to pyoverdines and negative control (SEQ ID NO: 64) were biotinylated for 2 h at room temperature applying an appropriate excess of EZ-Link NHS-PEG4-Biotin (Thermo, Cat#21329) followed by separation of non-reacted Biotin using a Zeba Spin Desalting Plate (Thermo, Cat#21329) according to the manufactures instructions.

[2] = molecular target: negative control lipocalin SEQ ID NO: 64 (Homo sapiens, UniProt P80188, C107S/Q48H); experiment: SPR (Biacore T200), negative control SEQ ID NO: 64; conditions: 1200 nM
Method: (§1) In a Surface Plasmon Resonance (SPR) based assay a Biacore T200 instrument (GE Healthcare) was used to measure the binding affinity of muteins to pyoverdine I succinyl, -succinamid, -α-ketoglutaryl with complexed iron ion or to pyoverdine II succinyl, -succinamid, -α-ketoglutaryl with complexed iron ion or to pyoverdine III succinyl, -succinamid, -α-ketoglutaryl with complexed iron ion. Muteins selected for binding to pyoverdines and negative control (SEQ ID NO: 64) were biotinylated for 2 h at room temperature applying an appropriate excess of EZ-Link NHS-PEG4-Biotin (Thermo, […]) followed by separation of non-reacted Biotin using a Zeba Spin Desalting Plate (Thermo, […]) according to the manufactures instructions.
(§2) In the SPR affinity assay, biotinylated muteins and negative control were captured on a sensor chip CAP using the Biotin CAPture Kit (GE Healthcare): Sensor Chip CAP is pre-immobilized with an ssDNA oligo. Undiluted Biotin CAPture Reagent (streptavidin conjugated with the complementary ss-DNA oligo) was applied at a flow rate of 2 μl/min for 300 s. Subsequently, 1 μg/ml to 100 μg/mL of biotinylated muteins or negative control were applied for 300 s at a flow rate of 5 μl/min. The reference channel was loaded with Biotin CAPture Reagent only.
Applying a flow rate of 30 μl/min, a single cycle or multi cycle kinetics approach was used with a sample contact time of 120-180 s and a dissociation time of 900-2400 s. […] After ligand immobilization, for analysis using single cycle kinetics all 4-5 concentrations of Pvd were applied consecutively in ascending order before the dissociation was monitored. For analysis using multi cycle kinetics 4 dilutions of Pvd were applied, each followed a dissociation phase. All measurements were performed at 25° C. […] Data were evaluated with Biacore T200 Evaluation software (V 1.0). Double referencing was used. A 1:1 Binding model was used to fit the raw data. […]

[3] = molecular target: T2, human lipocalin 2 (hNGAL) mutein SEQ ID NO: 33 (Homo sapiens, UniProt P80188, A60E/C107S/D97N/E64D/I61V/K145N/K154W/K93N/L123V/L56V/L90R/N116K/N85Q/Q48H/Q69G/R101E/R92H/S147K/S88E/W99F/Y120N/Y126M/Y152G/Y72P); experiment: SPR (Biacore T200), mutein SEQ ID NO: 33; conditions: 25° C.
T2 construct: made in house; host or cells: E. coli
Method: as §4

[4] = molecular target: T3, human lipocalin 2 (hNGAL) mutein SEQ ID NO: 32 (Homo sapiens, UniProt P80188, A60E/C107S/D97N/E64D/I61V/K145N/K154W/K93N/L123V/L56V/L90R/N116K/N85D/Q48H/Q69G/R101E/R92H/S147K/S88E/W99F/Y120N/Y126M/Y152G/Y72P); experiment: SPR (Biacore T200), mutein SEQ ID NO: 32; conditions: 25° C.
T3 construct: made in house; host or cells: E. coli
Method: as §4

[5] = molecular target: T4, human lipocalin 2 (hNGAL) mutein SEQ ID NO: 47 (Homo sapiens, UniProt P80188, A60L/C107S/D97K/I61A/K154W/K93H/L123Q/L56E/L62R/L90R/N116L/Q48H/Q69M/R101V/S125P/S147V/S88E/W99D/Y120D/Y126E/Y72M); experiment: SPR (Biacore T200), mutein SEQ ID NO: 47; conditions: 25° C.
T4 construct: made in house; host or cells: E. coli
Method: as §1, §2
(§3) Applying a flow rate of 30 μl/min, a single cycle or multi cycle kinetics approach was used with a sample contact time of 120-180 s and a dissociation time of 900-2400 s. […] After ligand immobilization, for analysis using single cycle kinetics all 4-5 concentrations of Pvd were applied consecutively in ascending order before the dissociation was monitored. For analysis using multi cycle kinetics 4 dilutions of Pvd were applied, each followed a dissociation phase. All measurements were performed at 25° C. […] Data were evaluated with Biacore T200 Evaluation software (V 1.0). Double referencing was used. A 1:1 Binding model was used to fit the raw data.

[6] = molecular target: T5, human lipocalin 2 (hNGAL) mutein SEQ ID NO: 48 (Homo sapiens, UniProt P80188, A60L/C107S/D67N/D97K/I61A/K154W/K93H/L123Q/L56E/L90R/N116L/Q48H/Q69M/R101V/S125P/S147V/S88E/T165P/W99D/Y120D/Y126E/Y72M); experiment: SPR (Biacore T200), mutein SEQ ID NO: 48; conditions: 25° C.
T5 construct: made in house; host or cells: E. coli
Method: as §1, §2, §3

[7] = molecular target: T6, human lipocalin 2 (hNGAL) mutein SEQ ID NO: 43 (Homo sapiens, UniProt P80188, A60L/C107S/D97K/I61A/K154W/K93Q/L123Q/L56E/L90R/N116L/Q48H/Q69M/R101V/S147V/S88E/W99D/Y120D/Y126E/Y72M); experiment: SPR (Biacore T200), mutein SEQ ID NO: 43; conditions: 25° C.
T6 construct: made in house; host or cells: E. coli
Method: as §1, §2, §3

[8] = molecular target: T7, human lipocalin 2 (hNGAL) mutein SEQ ID NO: 49 (Homo sapiens, UniProt P80188, A60L/C107S/D65G/D97K/I61A/K154W/K66R/K93H/L123Q/L56E/L90R/N116L/Q48H/Q69M/R101V/S125P/S147V/S88E/W99D/Y120D/Y126E/Y72M); experiment: SPR (Biacore T200), mutein SEQ ID NO: 49; conditions: 25° C.
T7 construct: made in house; host or cells: E. coli
Method: as §1, §2, §3

[9] = molecular target: T8, human lipocalin 2 (hNGAL) mutein SEQ ID NO: 45 (Homo sapiens, UniProt P80188, A60L/C107S/D97K/I61A/K154W/K93H/L123Q/L56E/L90R/N116L/Q48H/Q69M/R101V/S147V/S88E/W99D/Y120D/Y126E/Y72M); experiment: SPR (Biacore T200), mutein SEQ ID NO: 45; conditions: 25° C.
T8 construct: made in house; host or cells: E. coli
Method: as §1, §2, §3

[10] = molecular target: T9, human lipocalin 2 (hNGAL) mutein SEQ ID NO: 44 (Homo sapiens, UniProt P80188, A60L/C107S/D97K/I61T/K154W/K93R/L123Q/L56E/L90R/N116V/Q48H/Q69M/R101V/S147V/S88E/W99D/Y120D/Y126E/Y72M); experiment: SPR (Biacore T200), mutein SEQ ID NO: 44; conditions: 25° C.
T9 construct: made in house; host or cells: E. coli
Method: as §1, §2, §3

[11] = molecular target: T10, human lipocalin 2 (hNGAL) mutein SEQ ID NO: 46 (G-N-I-K, positions 95-98, deleted) (Homo sapiens, UniProt P80188, A60L/C107S/D97Q/DEL115-118/I61A/K154W/K93Y/L123Q/L56E/L90R/Q48H/Q69K/R101V/S147V/S88E/W99D/Y120E/Y126E/Y152F/Y72M); experiment: SPR (Biacore T200), mutein SEQ ID NO: 46; conditions: 25° C.
T10 construct: made in house; host or cells: E. coli
Method: as §1, §2, §3

T7 sequence (P80188 21-198 with the stated changes): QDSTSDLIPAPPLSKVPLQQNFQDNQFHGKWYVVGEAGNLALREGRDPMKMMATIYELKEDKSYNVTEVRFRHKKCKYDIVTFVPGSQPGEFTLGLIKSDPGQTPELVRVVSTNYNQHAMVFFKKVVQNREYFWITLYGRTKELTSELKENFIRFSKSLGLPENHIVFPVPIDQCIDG
T10 sequence (P80188 with tags, fused parts or gaps with the stated changes): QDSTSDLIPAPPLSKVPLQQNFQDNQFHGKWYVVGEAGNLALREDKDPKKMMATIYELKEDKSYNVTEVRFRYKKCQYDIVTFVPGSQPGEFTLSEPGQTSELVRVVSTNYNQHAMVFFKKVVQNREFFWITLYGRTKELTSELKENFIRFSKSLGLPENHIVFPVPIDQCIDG
T2 sequence (P80188 21-198 with the stated changes): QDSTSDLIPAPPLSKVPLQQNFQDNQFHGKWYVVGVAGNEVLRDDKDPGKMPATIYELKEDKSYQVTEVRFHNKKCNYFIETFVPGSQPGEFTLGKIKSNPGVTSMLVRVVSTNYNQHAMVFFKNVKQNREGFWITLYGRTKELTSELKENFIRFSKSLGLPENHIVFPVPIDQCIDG
T6 sequence (P80188 21-198 with the stated changes): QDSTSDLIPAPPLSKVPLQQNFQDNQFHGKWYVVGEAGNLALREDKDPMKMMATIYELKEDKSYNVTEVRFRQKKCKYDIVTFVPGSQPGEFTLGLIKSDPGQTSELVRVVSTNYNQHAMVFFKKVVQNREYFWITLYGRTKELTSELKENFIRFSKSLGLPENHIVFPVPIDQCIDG
T8 sequence (P80188 21-198 with the stated changes): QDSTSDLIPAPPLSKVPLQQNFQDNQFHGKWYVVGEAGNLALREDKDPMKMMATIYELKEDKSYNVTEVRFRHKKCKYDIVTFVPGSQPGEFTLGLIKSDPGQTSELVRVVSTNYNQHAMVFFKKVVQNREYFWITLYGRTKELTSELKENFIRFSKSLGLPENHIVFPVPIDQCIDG
T4 sequence (P80188 21-198 with the stated changes): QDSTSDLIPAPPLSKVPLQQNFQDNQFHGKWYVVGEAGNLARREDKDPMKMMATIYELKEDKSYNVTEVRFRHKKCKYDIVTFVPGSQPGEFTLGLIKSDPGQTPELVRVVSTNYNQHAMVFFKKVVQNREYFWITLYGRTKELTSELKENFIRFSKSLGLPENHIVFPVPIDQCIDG
T3 sequence (P80188 21-198 with the stated changes): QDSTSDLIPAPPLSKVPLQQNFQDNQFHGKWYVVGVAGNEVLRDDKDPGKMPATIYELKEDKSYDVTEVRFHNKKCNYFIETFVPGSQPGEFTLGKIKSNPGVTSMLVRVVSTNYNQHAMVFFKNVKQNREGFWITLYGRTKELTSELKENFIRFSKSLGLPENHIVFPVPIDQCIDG
T5 sequence (P80188 21-198 with the stated changes): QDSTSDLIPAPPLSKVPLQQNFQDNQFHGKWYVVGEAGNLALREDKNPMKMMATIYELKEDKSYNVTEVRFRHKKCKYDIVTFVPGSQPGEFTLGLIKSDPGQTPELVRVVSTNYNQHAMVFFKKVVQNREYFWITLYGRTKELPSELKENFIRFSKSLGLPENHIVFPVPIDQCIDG
T1 sequence (P80188 21-198 with the stated changes): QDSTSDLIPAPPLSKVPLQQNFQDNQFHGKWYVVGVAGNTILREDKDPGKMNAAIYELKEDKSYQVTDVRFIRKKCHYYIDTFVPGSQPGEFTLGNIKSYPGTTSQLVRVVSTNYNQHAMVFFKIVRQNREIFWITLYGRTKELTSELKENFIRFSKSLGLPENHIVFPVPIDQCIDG
T9 sequence (P80188 21-198 with the stated changes): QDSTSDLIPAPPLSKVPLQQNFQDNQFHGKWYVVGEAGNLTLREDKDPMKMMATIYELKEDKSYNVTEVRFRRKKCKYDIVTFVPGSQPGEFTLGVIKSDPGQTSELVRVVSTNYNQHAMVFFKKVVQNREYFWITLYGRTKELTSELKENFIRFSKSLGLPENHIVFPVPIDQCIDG
Chain of negative control lipocalin SEQ ID NO: 64 (P80188 21-198 Q48H/C107S): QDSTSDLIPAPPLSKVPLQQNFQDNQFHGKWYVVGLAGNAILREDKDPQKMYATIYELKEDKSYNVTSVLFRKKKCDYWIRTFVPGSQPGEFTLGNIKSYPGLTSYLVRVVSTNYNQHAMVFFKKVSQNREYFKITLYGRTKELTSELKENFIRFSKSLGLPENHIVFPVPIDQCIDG

specificity and crossreactivity (binding) [1]: absence of binding
SMILES: CC(=O)N(O)CCCCCNC(=O)CCC(=O)N(O)CCCCCNC(=O)CCC(=O)N(O)CCCCCN [Desferoxamin, desferoxamine, reference compound]

SMILES: C[C@@H](O)[C@@H]1NC(=O)[C@H](CCCN(O)C=O)NC(=O)[C@@H](NC(=O)[C@H](CCCN(O)C=O)NC(=O)[C@@H](CO)NC(=O)[C@H](CCCNC(=N)N)NC(=O)[C@@H](CO)NC(=O)[C@@H]2CCN=C3C(NC(=O)CCC(=O)O)=Cc4cc(O)c(O)cc4N32)CCCCNC(=O)[C@H]([C@@H](C)O)NC1=O.[Fe+3] [Pvd I s (+Fe)] (Suc-[X4][dS]R[dS][X5]K[X5]TT; lactam 6-C)
absence of binding to negative control [2]: absence of binding

SMILES: C[C@@H](O)[C@@H](NC(=O)CNC(=O)[C@H](CCCN)NC(=O)[C@@H](CCCN([O-])C=O)NC(=O)[C@@H](CO)NC(=O)[C@@H]1CCNc2c(NC(=O)C(=O)CCC(=O)O)cc3cc([O-])c([O-])cc3[n+]21)C(=O)N[C@@H](CO)C(=O)N[C@H]1CCCN([O-])C1=O.[Fe+3] [Pvd II aKG (+Fe)] ({Butanoyl(2-oxo,4-COOH)}-[X1][dS][dOrn(N5-OH,N5-CHO)][Orn]G[d(aThr)]S-X2)
Kd ([1]; 25° C.): 3.42 nM
koff ([1]; 25° C.): 0.000149 s⁻¹
kon ([1]; 25° C.): 43500 M⁻¹ s⁻¹
Kd [3]: 4.19 nM
koff [3]: 0.000416 s⁻¹
kon [3]: 99300 M⁻¹ s⁻¹
Kd [4]: 3.44 nM
koff [4]: 0.000374 s⁻¹
kon [4]: 109000 M⁻¹ s⁻¹

SMILES: C[C@@H](O)[C@@H](NC(=O)CNC(=O)[C@H](CCCN)NC(=O)[C@@H](CCCN([O-])C=O)NC(=O)[C@@H](CO)NC(=O)[C@@H]1CCNc2c(NC(=O)CCC(=O)O)cc3cc([O-])c([O-])cc3[n+]21)C(=O)N[C@@H](CO)C(=O)N[C@H]1CCCN([O-])C1=O.[Fe+3] [Pvd II s (+Fe)] (Suc-[X1][dS][dOrn(N5-OH,N5-CHO)][Orn]G[d(aThr)]S-X2)
absence of binding to negative control [2]: absence of binding

SMILES: NC(=O)CC[C@H](NC(=O)[C@H](CCCN([O-])C=O)NC(=O)[C@@H]1CCN=C([C@@H](CO)NC(=O)[C@@H]2CCNc3c(NC(=O)C(=O)CCC(=O)O)cc4cc([O-])c([O-])cc4[n+]32)N1)C(=O)N[C@H](CCC(N)=O)C(=O)N[C@H](CCCN([O-])C=O)C(=O)NCC(=O)O.[Fe+3] [Pvd III aKG (+Fe)]
Kd [5]: 8.97 nM
koff [5]: 0.000262 s⁻¹
kon [5]: 29200 M⁻¹ s⁻¹
Kd [6]: 5.81 nM
koff [6]: 0.000158 s⁻¹
kon [6]: 27200 M⁻¹ s⁻¹
Kd [7]: 5.29 nM
koff [7]: 0.000303 s⁻¹
kon [7]: 57300 M⁻¹ s⁻¹
Kd [8]: 1.53 nM
koff [8]: 4.29e-05 s⁻¹
kon [8]: 28100 M⁻¹ s⁻¹
Kd [9]: 6.99 nM
koff [9]: 0.00033 s⁻¹
kon [9]: 47300 M⁻¹ s⁻¹
Kd [10]: 5.64 nM
koff [10]: 0.000271 s⁻¹
kon [10]: 48200 M⁻¹ s⁻¹
Kd [11]: 3.15 nM
koff [11]: 0.000241 s⁻¹
kon [11]: 76700 M⁻¹ s⁻¹

SMILES: NC(=O)CCC(=O)Nc1cc2cc([O-])c([O-])cc2[n+]2c1NCC[C@H]2C(=O)N[C@H](CO)C1=NCC[C@@H](C(=O)N[C@@H](CCCN([O-])C=O)C(=O)N[C@@H](CCC(N)=O)C(=O)N[C@H](CCC(N)=O)C(=O)N[C@H](CCCN([O-])C=O)C(=O)NCC(=O)O)N1.[Fe+3] [Pvd III sa (+Fe)]
Kd [5]: 0.2 nM
koff [5]: 2.52e-05 s⁻¹
kon [5]: 128000 M⁻¹ s⁻¹
Kd [6]: 0.64 nM
koff [6]: 9.51e-05 s⁻¹
kon [6]: 148000 M⁻¹ s⁻¹
Kd [7]: 3.04 nM
koff [7]: 0.000107 s⁻¹
kon [7]: 35200 M⁻¹ s⁻¹
Kd [8]: 0.84 nM
koff [8]: 0.000112 s⁻¹
kon [8]: 134000 M⁻¹ s⁻¹
Kd [9]: 3.03 nM
koff [9]: 9.91e-05 s⁻¹
kon [9]: 32700 M⁻¹ s⁻¹
Kd [10]: 2.94 nM
koff [10]: 8.9e-05 s⁻¹
kon [10]: 30300 M⁻¹ s⁻¹
Kd [11]: 1.58 nM
koff [11]: 6.9e-05 s⁻¹
kon [11]: 43600 M⁻¹ s⁻¹

SMILES: CN1[C@@H]([C@H]2CSC(c3ccccc3O)=N2)SC[C@H]1C(=O)O [Pyochelin, pyochelin]
specificity and crossreactivity (binding) [1]: absence of binding
